Results reported in ChEMBL document CHEMBL1139953, “Bis[(para-methoxy)benzyl] phosphonate prodrugs with improved stability and enhanced cell penetration” (Bioorg Med Chem Lett, 2007).

Experiments:
Hepatocyte = experiment: Drug activation in rat hepatocytes by measuring intracellular NMPA levels at 100 uM after 1 hr; assay type: cell-based
[1] = Stability assessed as half life in rat plasma; assay type: ADME, cell-free
[2] = Stability assessed as half life in Krebs bicarbonate buffer at 37degC; assay type: physicochemical
Liver microsomes [3] = experiment: Drug activation in NADPH-fortified human liver microsomes assessed as rate of NMPA formation; parameters: species or system Microsome
Nucleic Acid = experiment: Ratio of drug activation in NADPH-fortified human liver microsomes to NADPH-fortified rat liver microsomes assessed as rate of NMPA formation; parameters: species or system Microsome
Liver microsomes [4] = experiment: Drug activation in NADPH-fortified rat liver microsomes assessed as rate of NMPA formation; parameters: species or system Microsome
Liver = experiment: Drug activation in NADPH-fortified rat liver without microsomes assessed as rate of NMPA formation; parameters: species or system Microsome
Liver microsomes [5] = experiment: Drug activation in human liver microsomes assessed as rate of NMPA formation; parameters: species or system Microsome

| Compound | Activity (Hepatocyte) | half-life [1] | also measured |
| --- | --- | --- | --- |
| COc1cc(COP(=O)(Cc2cccc3ccccc23)OCc2cc(Br)c(OC)c(Br)c2)cc(OC)c1OC (stereo not given) | 26 nmol/g | – | – |
| O=P(O)(O)Cc1cccc2ccccc12 | 0 nmol/g | – | – |
| COc1ccc(COP(=O)(Cc2cccc3ccccc23)OCc2ccc(OC)cc2)cc1 | 91 nmol/g | 0.15 h | half-life [2]: 0.15 h |
| CCOc1ccc(COP(=O)(Cc2cccc3ccccc23)OCc2ccc(OCC)c(Cl)c2)cc1Cl | 54 nmol/g | > 2 h | – |
| COc1ccc(COP(=O)(Cc2cccc3ccccc23)OCc2ccc(OC)c([N+](=O)[O-])c2)cc1[N+](=O)[O-] | 60 nmol/g | > 2 h | – |
| COc1c(Br)cc(COP(=O)(Cc2cccc3ccccc23)OCc2cc(Br)c(OC)c(Br)c2)cc1Br | 0 nmol/g | – | – |
| COc1ccc(COP(=O)(Cc2cccc3ccccc23)OCc2ccc(OC)c(Cl)c2)cc1Cl | 130 nmol/g | > 2 h | Activity (Liver microsomes [3]): 4.52 pmol/min/mg; Ratio (Nucleic Acid): 2; half-life [2]: > 2 h; Activity (Liver microsomes [4]): 1.58 pmol/min/mg |
| COc1ccc(COP(=O)(Cc2cccc3ccccc23)OCc2ccc(OC)c(C(F)(F)F)c2)cc1C(F)(F)F | 46 nmol/g | > 2 h | – |
| CCCOc1ccc(COP(=O)(Cc2cccc3ccccc23)OCc2ccc(OCCC)c(Cl)c2)cc1Cl | 0 nmol/g | – | – |
| COc1ccc(COP(=O)(Cc2cccc3ccccc23)OCc2ccc(OC)c(F)c2)cc1F | 125 nmol/g | > 2 h | Activity (Liver microsomes [3]): 5.23 pmol/min/mg; Ratio (Nucleic Acid): 2; half-life [2]: > 2 h; Activity (Liver microsomes [4]): 2.94 pmol/min/mg |
| COc1c(Cl)cc(COP(=O)(Cc2cccc3ccccc23)OCc2cc(Cl)c(OC)c(Cl)c2)cc1Cl | 0 nmol/g | – | – |
| COc1ccc(COP(=O)(Cc2cccc3ccccc23)OCc2ccc(OC)c(C(C)=O)c2)cc1C(C)=O | 0 nmol/g | – | – |
| CC(C)C(=O)OCOP(=O)(Cc1cccc2ccccc12)OCOC(=O)C(C)C | 85 nmol/g | 0.00833 h | – |
| COc1ccc(COP(=O)(Cc2cccc3ccccc23)OCc2ccc(OC)c(C#N)c2)cc1C#N | 73 nmol/g | > 2 h | – |
| COc1ccc(COP(=O)(Cc2cccc3ccccc23)OCc2ccc(OC)c(Br)c2)cc1Br | 76 nmol/g | > 2 h | Activity (Liver): 0 pmol/min/mg; Activity (Liver microsomes [3]): 4.85 pmol/min/mg; Ratio (Nucleic Acid): 2; Activity (Liver microsomes [5]): 0 pmol/min/mg; half-life [2]: > 2 h; Activity (Liver microsomes [4]): 2.76 pmol/min/mg |
| CCOP(=O)(Cc1cccc2ccccc12)OCC | 0 nmol/g | – | – |
